From PubChem BioAssay AID342 (DTP/NCI, 2004)
Where “and” joins values, the source holds several entries; their conditions need not be identical. Identical values can stand only once.

Test system: Swiss mice, Sarcoma 180 sc, mean tumor weight T/C
Test: NCI In Vivo Anticancer Drug Screen. Data for tumor model Sarcoma 180 (subcutaneous) in Swiss mice
Conditions: endpoint: mean tumor weight, higher = larger tumour
Method in brief: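 Transplantable tumors were established in mice, compound was given, then survival or tumor size was recorded. The treated value was divided by the vehicle-control value.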

[1] = dose: 50.0 mg/kg/injection, schedule: Q01DX007 (ip), vehicle: carboxymethylcellulose (CMC)
[2] = dose: 4.0 mg/kg/injection, schedule: Q01DX007 (ip), vehicle: carboxymethylcellulose (CMC)
[3] = dose: 8.0 mg/kg/injection, schedule: Q01DX007 (ip), vehicle: carboxymethylcellulose (CMC)

Q: `COc1cccc(/C=N\NC(=O)C(C)SC(C)C(=O)N/N=C/c2cccc(OC)c2)c1` (stereo not given) was tested. Which T/C (dose: 25.0 mg/kg/injection, schedule: Q01DX007 (ip), vehicle: carboxymethylcellulose (CMC)) did it give?
A: 68 % of control

Q: And the T/C (dose: 38.0 mg/kg/injection, schedule: Q01DX007 (ip), vehicle: carboxymethylcellulose (CMC))?
A: 62 % of control

Q: What about the T/C (dose: 42.0 mg/kg/injection, schedule: Q#A X014 (ip), vehicle: carboxymethylcellulose (CMC)) of the same compound?
A: 78 % of control

Q: What about the T/C (dose: 53.0 mg/kg/injection, schedule: Q01DX007 (ip), vehicle: methylcellulose (MC)) of the same compound?
A: 77 % of control

Q: What about the T/C (dose: 56.0 mg/kg/injection, schedule: Q01DX007 (ip), vehicle: carboxymethylcellulose (CMC)) of the same compound?
A: 35 % of control

Q: And the T/C (dose: 63.0 mg/kg/injection, schedule: Q#A X014 (ip), vehicle: carboxymethylcellulose (CMC))?
A: 79 % of control

Q: And the T/C (dose: 80.0 mg/kg/injection, schedule: Q01DX007 (ip), vehicle: methylcellulose (MC))?
A: 63 % of control

Q: What about the T/C (dose: 95.0 mg/kg/injection, schedule: Q#A X014 (ip), vehicle: carboxymethylcellulose (CMC)) of the same compound?
A: 65 % of control

Q: What about the T/C (dose: 120.0 mg/kg/injection, schedule: Q01DX007 (ip), vehicle: methylcellulose (MC)) of the same compound?
A: 47 % of control

Q: And the T/C (dose: 142.5 mg/kg/injection, schedule: Q#A X014 (ip), vehicle: carboxymethylcellulose (CMC))?
A: 61 % of control

Q: And the T/C (dose: 180.0 mg/kg/injection, schedule: Q01DX007 (ip), vehicle: methylcellulose (MC))?
A: 59 % of control

Q: What about the T/C (dose: 270.0 mg/kg/injection, schedule: Q01DX007 (ip), vehicle: methylcellulose (MC)) of the same compound?
A: 58 % of control

Q: What about the T/C (dose: 300.0 mg/kg/injection, schedule: Q01DX007 (ip), vehicle: carboxymethylcellulose (CMC)) of the same compound?
A: 64 % of control

Q: What about the T/C (dose: 400.0 mg/kg/injection, schedule: Q01DX007 (ip), vehicle: carboxymethylcellulose (CMC)) of the same compound?
A: 59 % of control

Q: Which results are given for `Cc1cc(=O)[nH]c(N=Nc2c(O)[nH]c3ccccc23)n1`?
A: T/C (dose: 222.0 mg/kg/injection, schedule: Q01DX007 (ip), vehicle: saline): 58 % of control; T/C (dose: 333.0 mg/kg/injection, schedule: Q01DX007 (ip), vehicle: saline): 75 % of control; T/C (dose: 500.0 mg/kg/injection, schedule: Q01DX007 (ip), vehicle: saline): 43 % of control; T/C (dose: 750.0 mg/kg/injection, schedule: Q01DX007 (ip), vehicle: saline): 59 % of control

Q: For `O=[N+]([O-])c1ccc(O)c([N+](=O)[O-])c1`, which T/C (dose: 1325.0 micrograms/kg/injection, schedule: Q01DX007 (ip), vehicle: carboxymethylcellulose (CMC)) is on record?
A: 69 % of control

Q: And the T/C (dose: 2650.0 micrograms/kg/injection, schedule: Q01DX007 (ip), vehicle: carboxymethylcellulose (CMC))?
A: 96 % of control

Q: What about the T/C (dose: 4300.0 micrograms/kg/injection, schedule: Q01DX007 (ip), vehicle: carboxymethylcellulose (CMC)) of the same compound?
A: 71 % of control

Q: What about the T/C (dose: 6625.0 micrograms/kg/injection, schedule: Q01DX007 (ip), vehicle: carboxymethylcellulose (CMC)) of the same compound?
A: 79 % of control

Q: With `CS(=O)(=O)OCCCCOS(C)(=O)=O` as the compound, how does the T/C (dose: 4.12 mg/kg/injection, schedule: Q#A X014 (ip), vehicle: carboxymethylcellulose (CMC)) read?
A: 108 % of control

Q: And the T/C (dose: 6.25 mg/kg/injection, schedule: Q#A X014 (ip), vehicle: carboxymethylcellulose (CMC))?
A: 91 % of control

Q: What about the T/C (dose: 8.25 mg/kg/injection, schedule: Q#A X014 (ip), vehicle: carboxymethylcellulose (CMC)) of the same compound?
A: 119 % of control

Q: And the T/C (dose: 9.87 mg/kg/injection, schedule: Q01DX007 (ip), vehicle: carboxymethylcellulose (CMC))?
A: 87 % of control

Q: And the T/C (dose: 12.5 mg/kg/injection, schedule: Q#A X014 (ip), vehicle: carboxymethylcellulose (CMC))?
A: 103 % of control

Q: And the T/C (dose: 16.5 mg/kg/injection, schedule: Q#A X014 (ip), vehicle: carboxymethylcellulose (CMC))?
A: 85 % of control

Q: What about the T/C (dose: 19.75 mg/kg/injection, schedule: Q01DX007 (ip), vehicle: carboxymethylcellulose (CMC)) of the same compound?
A: 65 % of control

Q: What about the T/C (dose: 25.0 mg/kg/injection, schedule: Q#A X014 (ip), vehicle: carboxymethylcellulose (CMC)) of the same compound?
A: 96 % of control

Q: And the T/C (dose: 33.0 mg/kg/injection, schedule: Q#A X014 (ip), vehicle: carboxymethylcellulose (CMC))?
A: 66 % of control

Q: What about the T/C (dose: 39.5 mg/kg/injection, schedule: Q01DX007 (ip), vehicle: carboxymethylcellulose (CMC)) of the same compound?
A: 60 % of control

Q: `NCCc1ccccc1` was tested. Which T/C (dose: 31.3 mg/kg/injection, schedule: Q01DX007 (ip), vehicle: saline) did it give?
A: 83 % of control

Q: And the T/C (dose: 62.5 mg/kg/injection, schedule: Q01DX007 (ip), vehicle: saline)?
A: 32 % of control

Q: With `CO/[N+]([O-])=C\C(=O)N/C=C/C(=O)O` as the compound, how does the T/C [1] read?
A: 79 % of control

Q: For `N#CCOC(=O)CCC(NC(=O)OCc1ccccc1)C(N)=O` (stereo not given), which T/C [1] is on record?
A: 94 % of control

Q: What does the source list for `Cn1c(N)nc2nc[nH]c2c1=S`?
A: T/C (dose: 1.35 mg/kg/injection, schedule: Q#A X014 (ip), vehicle: methylcellulose (MC)): 108 % of control; T/C (dose: 2.0 mg/kg/injection, schedule: Q#A X014 (ip), vehicle: methylcellulose (MC)): 45 % of control; T/C (dose: 3.0 mg/kg/injection, schedule: Q#A X014 (ip), vehicle: methylcellulose (MC)): 67 % of control; T/C (dose: 4.5 mg/kg/injection, schedule: Q#A X014 (ip), vehicle: methylcellulose (MC)): 37 % of control

Q: Which T/C (dose: 1.25 mg/kg/injection, schedule: Q01DX007 (iv), vehicle: water) does the source give for `NCC(=O)O.[Zn+2]` here?
A: 99 % of control

Q: And the T/C (dose: 2.5 mg/kg/injection, schedule: Q01DX007 (iv), vehicle: water)?
A: 83 % of control

Q: What about the T/C (dose: 5.0 mg/kg/injection, schedule: Q01DX007 (iv), vehicle: water) of the same compound?
A: 113 % of control

Q: What about the T/C (dose: 10.0 mg/kg/injection, schedule: Q01DX007 (iv), vehicle: water) of the same compound?
A: 95 % of control

Q: Which results are given for `Nc1nc(=S)c2ncn(C3OC(CO)C(O)C3O)c2[nH]1` (stereo not given)?
A: T/C (dose: 0.62 mg/kg/injection, schedule: Q#A X014 (ip), vehicle: carboxymethylcellulose (CMC)): 86 % of control; T/C (dose: 1.25 mg/kg/injection, schedule: Q#A X014 (ip), vehicle: carboxymethylcellulose (CMC)): 91 % of control; T/C (dose: 1.3 mg/kg/injection, schedule: Q#A X014 (ip), vehicle: carboxymethylcellulose (CMC)): 86 % of control and 95 % of control; T/C (dose: 2.0 mg/kg/injection, schedule: Q#A X014 (ip), vehicle: carboxymethylcellulose (CMC)): 83 % of control and 94 % of control; T/C (dose: 2.5 mg/kg/injection, schedule: Q#A X014 (ip), vehicle: carboxymethylcellulose (CMC)): 86 % of control; T/C (dose: 2.65 mg/kg/injection, schedule: Q#A X014 (ip), vehicle: carboxymethylcellulose (CMC)): 51 % of control and 74 % of control; T/C (dose: 5.0 mg/kg/injection, schedule: Q#A X014 (ip), vehicle: carboxymethylcellulose (CMC)): 90 % of control

Q: With `S=C(N=Nc1ccccc1)NNc1ccccc1` as the compound, how does the T/C (dose: 37.5 mg/kg/injection, schedule: Q01DX007 (ip), vehicle: carboxymethylcellulose (CMC)) read?
A: 110 % of control

Q: And the T/C (dose: 75.0 mg/kg/injection, schedule: Q01DX007 (ip), vehicle: carboxymethylcellulose (CMC))?
A: 47 % of control

Q: With `CCCCNc1ncnc2c1cnn2C` as the compound, how does the T/C [2] read?
A: 124 % of control

Q: What about the T/C [3] of the same compound?
A: 107 % of control and 121 % of control

Q: And the T/C (dose: 31.0 mg/kg/injection, schedule: Q01DX007 (ip), vehicle: carboxymethylcellulose (CMC))?
A: 92 % of control

Q: What about the T/C (dose: 32.0 mg/kg/injection, schedule: Q01DX007 (ip), vehicle: carboxymethylcellulose (CMC)) of the same compound?
A: 77 % of control

Q: And the T/C (dose: 62.0 mg/kg/injection, schedule: Q01DX007 (ip), vehicle: carboxymethylcellulose (CMC))?
A: 112 % of control

Q: Which T/C (dose: 75.0 mg/kg/injection, schedule: Q#A X014 (ip), vehicle: saline) does the source give for `CCN(CC)CCOC(=O)c1ccc(N)cc1` here?
A: 92 % of control

Q: How did the T/C (dose: 6.25 mg/kg/injection, schedule: Q01DX007 (ip), vehicle: water) turn out when `Cc1cc(N=Nc2ccc(Sc3ccc(N=Nc4ccc(O)c(C(=O)O)c4)cc3)cc2)c(N)c(N=Nc2ccc(C(=O)O)cc2)c1N` was run?
A: 114 % of control

Q: What about the T/C (dose: 12.5 mg/kg/injection, schedule: Q01DX007 (ip), vehicle: water) of the same compound?
A: 106 % of control

Q: What about the T/C (dose: 25.0 mg/kg/injection, schedule: Q01DX007 (ip), vehicle: water) of the same compound?
A: 83 % of control

Q: How did the T/C [2] turn out when `O=C1c2ccccc2C(=O)N1CCF` was run?
A: 90 % of control

Q: And the T/C [3]?
A: 72 % of control

Q: For `O=C(O)O.[Cd]`, which T/C (dose: 5.0 mg/kg/injection, schedule: Q01DX007 (ip), vehicle: carboxymethylcellulose (CMC)) is on record?
A: 69 % of control

Q: What does the source list for `C[C@]12CCC(=O)C=C1[C@@H](F)C[C@@H]1[C@@H]2[C@@H](O)C[C@@]2(C)[C@H]1CC[C@]2(O)C(=O)CO`?
A: T/C (dose: 37.0 mg/kg/injection, schedule: Q01DX007 (sc), vehicle: steriod suspending solution): 76 % of control; T/C (dose: 56.0 mg/kg/injection, schedule: Q01DX007 (sc), vehicle: steriod suspending solution): 89 % of control; T/C (dose: 125.0 mg/kg/injection, schedule: Q01DX007 (sc), vehicle: steriod suspending solution): 97 % of control; T/C (dose: 126.0 mg/kg/injection, schedule: Q01DX007 (sc), vehicle: steriod suspending solution): 33 % of control; T/C (dose: 188.0 mg/kg/injection, schedule: Q01DX007 (sc), vehicle: steriod suspending solution): 29 % of control
